This is an account of results in ChEMBL document CHEMBL5465560, “Selectivity Literature for EUbOPEN Chemogenomic Library” (2024).

Experiment [1] concerns the target T1, Mitogen-activated protein kinase kinase kinase 2 (Homo sapiens) (UniProt Q9Y2U5).
T1 sequence (whole entry): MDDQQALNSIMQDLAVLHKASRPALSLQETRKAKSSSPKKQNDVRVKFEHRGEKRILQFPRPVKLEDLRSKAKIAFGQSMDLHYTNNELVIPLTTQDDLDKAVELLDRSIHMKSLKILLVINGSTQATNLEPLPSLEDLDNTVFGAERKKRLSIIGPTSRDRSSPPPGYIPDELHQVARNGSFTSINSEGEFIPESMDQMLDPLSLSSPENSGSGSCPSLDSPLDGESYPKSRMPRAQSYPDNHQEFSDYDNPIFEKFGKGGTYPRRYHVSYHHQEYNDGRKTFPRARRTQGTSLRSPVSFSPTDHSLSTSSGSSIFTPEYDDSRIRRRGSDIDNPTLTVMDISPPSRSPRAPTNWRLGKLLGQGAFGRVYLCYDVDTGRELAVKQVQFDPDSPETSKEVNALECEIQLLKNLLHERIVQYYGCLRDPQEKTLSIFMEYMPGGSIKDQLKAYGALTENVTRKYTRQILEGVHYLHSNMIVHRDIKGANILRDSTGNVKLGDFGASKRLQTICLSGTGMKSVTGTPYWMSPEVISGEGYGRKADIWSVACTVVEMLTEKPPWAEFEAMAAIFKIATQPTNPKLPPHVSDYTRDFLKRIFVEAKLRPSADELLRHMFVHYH
In words: Selectivity interaction (LanthaScreen Eu Kinase Binding Assay) EUB0001632a MAP3K2. The settings on record: at 10 µM. For orientation: In TR-FRET formats the signal depends on donor and acceptor labels being close together.

In experiment [2] the target is Homeodomain-interacting protein kinase 3 (Homo sapiens, UniProt Q9H422). Put plainly: Selectivity interaction (Ambit KINOMEscan and KiNATiv profiling in Jurkat cells) EUB0000090b HIPK3. It counts as cell-based. The settings on record: at 1 µM.
In experiment [3] the target is T2, Dual specificity mitogen-activated protein kinase kinase 6 (Homo sapiens) (UniProt P52564).
T2 sequence (whole entry): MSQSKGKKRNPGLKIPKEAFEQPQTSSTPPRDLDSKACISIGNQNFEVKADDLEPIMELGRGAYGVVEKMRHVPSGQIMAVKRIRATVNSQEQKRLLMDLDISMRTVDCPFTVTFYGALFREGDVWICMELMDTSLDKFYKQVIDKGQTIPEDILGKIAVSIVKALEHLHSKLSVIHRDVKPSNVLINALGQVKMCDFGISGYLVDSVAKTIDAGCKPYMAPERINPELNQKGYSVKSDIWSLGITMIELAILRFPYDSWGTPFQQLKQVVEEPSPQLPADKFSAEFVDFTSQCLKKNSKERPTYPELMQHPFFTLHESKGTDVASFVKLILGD
As to conditions: at 10 µM.

Experiment [4] has as its target Protein arginine N-methyltransferase 7 (Homo sapiens, UniProt Q9NVM4). Put plainly: Selectivity interaction (Scintillation proximity assays) EUB0000230b PRMT7. A general note: Scintillation proximity formats need no separation of bound from free tracer.
Experiment [5] has as its target Wee1-like protein kinase 2 (Homo sapiens) (UniProt P0C1S8). In words: Selectivity interaction (KinomeScan (DiscoverX)) EUB0001079a WEE2. As to conditions: at 1 µM.
In experiment [6] the target is T3, Alpha-1A adrenergic receptor (Homo sapiens) (UniProt P35348).
T3 sequence (whole entry): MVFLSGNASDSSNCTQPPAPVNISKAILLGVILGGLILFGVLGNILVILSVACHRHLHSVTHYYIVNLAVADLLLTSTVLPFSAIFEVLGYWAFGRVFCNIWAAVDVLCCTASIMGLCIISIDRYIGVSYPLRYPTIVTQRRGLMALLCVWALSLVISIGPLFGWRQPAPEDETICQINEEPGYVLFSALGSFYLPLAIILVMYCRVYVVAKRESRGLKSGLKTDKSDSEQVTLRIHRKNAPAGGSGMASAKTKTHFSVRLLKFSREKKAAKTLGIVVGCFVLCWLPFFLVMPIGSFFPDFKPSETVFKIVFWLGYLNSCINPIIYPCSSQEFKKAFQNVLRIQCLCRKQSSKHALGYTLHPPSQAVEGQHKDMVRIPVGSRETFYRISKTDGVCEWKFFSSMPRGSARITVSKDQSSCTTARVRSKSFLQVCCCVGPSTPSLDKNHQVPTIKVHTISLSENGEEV
Put plainly: Selectivity interaction (GPCR panel (PDSP screen)) EUB0001079a ADRA1A. The settings on record: at 10 µM.

Experiment [7] deals with Serine/threonine-protein kinase 25 (Homo sapiens) (UniProt O00506). Put plainly: Selectivity interaction (KinomeScan (DiscoverX)) EUB0001079a STK25. As to conditions: at 1 µM.
Sequence of Serine/threonine-protein kinase 25 (Homo sapiens) (O00506 whole entry, looked up): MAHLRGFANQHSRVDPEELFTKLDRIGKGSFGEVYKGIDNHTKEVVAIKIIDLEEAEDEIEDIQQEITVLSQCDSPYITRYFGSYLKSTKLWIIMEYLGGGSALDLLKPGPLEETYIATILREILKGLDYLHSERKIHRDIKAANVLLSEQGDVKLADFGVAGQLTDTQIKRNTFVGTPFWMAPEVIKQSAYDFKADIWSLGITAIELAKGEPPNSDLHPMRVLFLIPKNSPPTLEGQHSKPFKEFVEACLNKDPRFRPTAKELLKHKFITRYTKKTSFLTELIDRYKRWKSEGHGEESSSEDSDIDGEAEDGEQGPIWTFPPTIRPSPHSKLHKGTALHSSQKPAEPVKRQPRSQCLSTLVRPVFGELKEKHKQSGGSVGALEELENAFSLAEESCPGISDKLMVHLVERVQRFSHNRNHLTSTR
Experiment [8] deals with 5-hydroxytryptamine receptor 1E (Homo sapiens) (UniProt P28566). In words: Selectivity interaction (GPCR panel (PDSP screen)) EUB0001079a HTR1E. The settings on record: at 10 µM.
Sequence of 5-hydroxytryptamine receptor 1E (Homo sapiens) (P28566 whole entry): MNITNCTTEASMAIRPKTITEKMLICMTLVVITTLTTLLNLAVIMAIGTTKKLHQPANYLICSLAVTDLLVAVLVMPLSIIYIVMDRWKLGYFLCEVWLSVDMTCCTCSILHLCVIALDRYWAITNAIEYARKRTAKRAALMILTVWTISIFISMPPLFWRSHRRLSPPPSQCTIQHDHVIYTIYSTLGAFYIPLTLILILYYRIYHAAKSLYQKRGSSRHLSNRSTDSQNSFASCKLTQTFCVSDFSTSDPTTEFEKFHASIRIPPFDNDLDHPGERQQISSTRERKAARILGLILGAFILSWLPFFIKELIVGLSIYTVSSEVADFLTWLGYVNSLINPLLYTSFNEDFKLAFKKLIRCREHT
Experiment [9] deals with 3',5'-cyclic-AMP phosphodiesterase 4B (Homo sapiens) (UniProt Q07343). In words: Selectivity interaction (Panel of kinases, GPCRs, ion channels and transporters (enzymatic assay)) EUB0000266bCl PDE4B.
Experiment [10] addresses Mitogen-activated protein kinase kinase kinase 11 (Homo sapiens) (UniProt Q16584). In words: Selectivity interaction (ActivX KiNativ screen (kinase selectivity in THP-1 cell lysates)) EUB0000639a MAP3K11. The settings on record: lysate. It counts as subcellular.
In experiment [11] the target is Tyrosine-protein kinase receptor UFO (Homo sapiens) (UniProt P30530). Put plainly: Selectivity interaction (Millipore kinase profiler) EUB0000124b AXL. As to conditions: at 10 µM.
The target of experiment [12] is Nuclear body protein SP140-like protein (Homo sapiens) (UniProt Q9H930). Put plainly: Selectivity interaction (Human bromodomain panel (DSF assay)) EUB0000233b SP140L. (In general: Differential scanning fluorimetry follows unfolding on heating by fluorescence.)
Experiment [13] has as its target Protein polybromo-1 (Homo sapiens) (UniProt Q86U86). In words: Selectivity interaction (Bromodomain panel (DSF asssay)) EUB0000270b PBRM1.
Experiment [14] addresses Ribosomal protein S6 kinase alpha-2 (Homo sapiens) (UniProt Q15349). Put plainly: Selectivity interaction (KinomeScan (DiscoverX)) EUB0000045b RPS6KA2. The settings on record: at 10 µM.
Experiment [15] addresses Calcium/calmodulin-dependent protein kinase type II subunit beta (Homo sapiens) (UniProt Q13554). In words: Selectivity interaction (KinomeScan (DiscoverX)) EUB0000618a CAMK2B. As to conditions: at 10 µM.

A value given as a limit tells only on which side of the number the result lay.

Sequence of Mitogen-activated protein kinase kinase kinase 11 (Homo sapiens) (Q16584 whole entry, looked up): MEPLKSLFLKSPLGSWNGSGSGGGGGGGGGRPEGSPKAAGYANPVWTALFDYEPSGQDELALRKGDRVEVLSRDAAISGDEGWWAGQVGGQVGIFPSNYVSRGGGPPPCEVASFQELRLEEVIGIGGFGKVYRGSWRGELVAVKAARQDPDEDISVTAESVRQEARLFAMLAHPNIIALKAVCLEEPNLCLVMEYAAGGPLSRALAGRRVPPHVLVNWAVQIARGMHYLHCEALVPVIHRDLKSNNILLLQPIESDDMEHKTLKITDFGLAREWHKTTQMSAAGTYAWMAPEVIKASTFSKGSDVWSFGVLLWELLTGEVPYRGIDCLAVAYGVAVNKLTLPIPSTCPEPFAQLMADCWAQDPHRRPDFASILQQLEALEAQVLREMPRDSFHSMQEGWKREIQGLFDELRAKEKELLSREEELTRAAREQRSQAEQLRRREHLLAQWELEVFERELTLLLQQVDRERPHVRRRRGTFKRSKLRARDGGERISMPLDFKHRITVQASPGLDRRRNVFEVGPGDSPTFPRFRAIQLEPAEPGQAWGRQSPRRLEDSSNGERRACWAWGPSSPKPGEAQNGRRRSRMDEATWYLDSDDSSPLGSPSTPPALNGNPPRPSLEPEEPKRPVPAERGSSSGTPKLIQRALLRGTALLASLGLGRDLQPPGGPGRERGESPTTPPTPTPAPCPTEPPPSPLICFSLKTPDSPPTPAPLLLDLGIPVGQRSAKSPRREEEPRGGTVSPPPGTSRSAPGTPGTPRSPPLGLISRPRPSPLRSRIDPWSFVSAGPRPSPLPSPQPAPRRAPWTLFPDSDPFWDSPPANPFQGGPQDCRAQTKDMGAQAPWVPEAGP
Sequence of Ribosomal protein S6 kinase alpha-2 (Homo sapiens) (Q15349 whole entry): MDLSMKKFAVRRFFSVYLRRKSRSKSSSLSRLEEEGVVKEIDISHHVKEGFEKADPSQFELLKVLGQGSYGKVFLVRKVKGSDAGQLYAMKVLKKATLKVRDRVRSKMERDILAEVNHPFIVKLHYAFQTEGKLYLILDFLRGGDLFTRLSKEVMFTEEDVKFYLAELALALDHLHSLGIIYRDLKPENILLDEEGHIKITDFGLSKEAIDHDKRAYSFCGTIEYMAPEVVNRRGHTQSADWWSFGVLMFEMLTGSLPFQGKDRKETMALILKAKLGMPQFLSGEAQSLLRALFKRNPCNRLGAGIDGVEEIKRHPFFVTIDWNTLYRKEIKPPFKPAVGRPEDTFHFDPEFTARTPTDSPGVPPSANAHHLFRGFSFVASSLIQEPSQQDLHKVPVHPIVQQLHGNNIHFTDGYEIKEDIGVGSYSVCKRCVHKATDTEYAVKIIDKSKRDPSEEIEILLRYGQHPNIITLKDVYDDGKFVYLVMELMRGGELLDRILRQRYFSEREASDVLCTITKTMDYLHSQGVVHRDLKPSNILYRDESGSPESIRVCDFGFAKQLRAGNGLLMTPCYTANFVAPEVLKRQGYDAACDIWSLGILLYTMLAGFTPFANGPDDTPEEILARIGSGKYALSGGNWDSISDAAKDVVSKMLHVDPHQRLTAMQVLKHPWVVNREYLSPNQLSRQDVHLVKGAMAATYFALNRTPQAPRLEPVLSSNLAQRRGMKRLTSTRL
Sequence of Calcium/calmodulin-dependent protein kinase type II subunit beta (Homo sapiens) (Q13554 whole entry): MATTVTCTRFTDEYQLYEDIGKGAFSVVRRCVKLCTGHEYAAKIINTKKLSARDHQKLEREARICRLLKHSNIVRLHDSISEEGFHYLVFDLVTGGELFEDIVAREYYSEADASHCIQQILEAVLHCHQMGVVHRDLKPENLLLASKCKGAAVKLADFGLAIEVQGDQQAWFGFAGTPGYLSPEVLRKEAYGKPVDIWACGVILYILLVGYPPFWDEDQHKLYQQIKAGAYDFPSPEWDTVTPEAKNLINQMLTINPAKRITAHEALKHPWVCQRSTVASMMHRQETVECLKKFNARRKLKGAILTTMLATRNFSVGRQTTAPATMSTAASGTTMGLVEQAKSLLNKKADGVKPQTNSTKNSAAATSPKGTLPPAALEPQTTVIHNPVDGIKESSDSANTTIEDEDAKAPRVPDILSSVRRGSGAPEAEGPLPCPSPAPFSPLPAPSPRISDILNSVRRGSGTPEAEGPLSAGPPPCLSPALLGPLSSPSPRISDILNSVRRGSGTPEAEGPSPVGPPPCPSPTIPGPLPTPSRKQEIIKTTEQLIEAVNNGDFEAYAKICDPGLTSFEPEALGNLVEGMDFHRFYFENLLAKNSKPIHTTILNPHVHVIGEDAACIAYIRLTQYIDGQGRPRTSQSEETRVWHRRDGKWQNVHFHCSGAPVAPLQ
Sequence of Protein polybromo-1 (Homo sapiens) (Q86U86 whole entry): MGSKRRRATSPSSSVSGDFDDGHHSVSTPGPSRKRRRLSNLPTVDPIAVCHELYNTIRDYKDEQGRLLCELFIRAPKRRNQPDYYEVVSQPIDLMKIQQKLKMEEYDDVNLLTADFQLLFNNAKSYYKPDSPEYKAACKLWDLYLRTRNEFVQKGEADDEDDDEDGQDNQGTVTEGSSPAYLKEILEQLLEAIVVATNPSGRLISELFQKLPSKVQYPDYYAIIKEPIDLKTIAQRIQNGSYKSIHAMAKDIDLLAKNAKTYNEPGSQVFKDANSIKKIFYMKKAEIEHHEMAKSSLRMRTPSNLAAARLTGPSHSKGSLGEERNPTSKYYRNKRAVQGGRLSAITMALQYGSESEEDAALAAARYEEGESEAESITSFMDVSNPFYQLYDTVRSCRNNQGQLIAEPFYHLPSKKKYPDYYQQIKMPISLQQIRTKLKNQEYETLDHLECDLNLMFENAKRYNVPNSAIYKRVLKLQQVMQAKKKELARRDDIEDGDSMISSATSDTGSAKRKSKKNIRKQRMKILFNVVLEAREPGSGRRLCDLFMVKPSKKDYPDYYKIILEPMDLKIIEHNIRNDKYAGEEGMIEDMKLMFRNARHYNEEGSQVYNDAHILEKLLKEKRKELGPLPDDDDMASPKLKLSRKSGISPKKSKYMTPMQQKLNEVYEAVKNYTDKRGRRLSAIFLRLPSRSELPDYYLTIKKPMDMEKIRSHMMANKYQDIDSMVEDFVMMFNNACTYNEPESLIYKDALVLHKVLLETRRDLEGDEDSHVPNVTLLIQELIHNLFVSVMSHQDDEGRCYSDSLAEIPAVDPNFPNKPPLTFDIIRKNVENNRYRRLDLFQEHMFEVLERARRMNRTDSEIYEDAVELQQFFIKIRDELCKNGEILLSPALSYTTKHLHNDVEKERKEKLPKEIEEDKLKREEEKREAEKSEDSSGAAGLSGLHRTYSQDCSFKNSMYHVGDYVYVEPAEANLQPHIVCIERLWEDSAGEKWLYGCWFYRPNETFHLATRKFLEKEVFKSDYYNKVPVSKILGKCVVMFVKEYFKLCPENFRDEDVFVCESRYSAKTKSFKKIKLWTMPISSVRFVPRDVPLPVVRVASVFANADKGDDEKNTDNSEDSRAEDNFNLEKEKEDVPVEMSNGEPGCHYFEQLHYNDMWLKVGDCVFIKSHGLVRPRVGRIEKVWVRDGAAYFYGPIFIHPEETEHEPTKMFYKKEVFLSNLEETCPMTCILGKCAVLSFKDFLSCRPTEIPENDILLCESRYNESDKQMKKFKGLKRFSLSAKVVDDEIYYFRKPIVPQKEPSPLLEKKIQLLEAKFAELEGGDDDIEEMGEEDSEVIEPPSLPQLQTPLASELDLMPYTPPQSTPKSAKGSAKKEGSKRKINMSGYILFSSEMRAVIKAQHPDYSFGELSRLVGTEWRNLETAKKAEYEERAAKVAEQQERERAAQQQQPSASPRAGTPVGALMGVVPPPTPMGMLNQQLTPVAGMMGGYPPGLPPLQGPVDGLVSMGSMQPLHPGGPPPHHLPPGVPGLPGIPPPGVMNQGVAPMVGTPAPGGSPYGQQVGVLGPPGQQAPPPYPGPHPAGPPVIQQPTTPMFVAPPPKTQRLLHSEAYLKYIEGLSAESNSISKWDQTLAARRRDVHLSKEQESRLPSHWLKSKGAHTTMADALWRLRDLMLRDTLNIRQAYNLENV

Consider `Cn1cc(-n2cnc3c(NCc4nc5cc(Cl)c(Cl)cc5[nH]4)nc(N4CCOCC4)nc32)cn1`, for which the % of inhibition in [1] is -3.79%.
Consider `CN(C)C/C=C/C(=O)Nc1ccc(C(=O)N2CCCC(Nc3ncc(Cl)c(-c4c[nH]c5ccccc45)n3)C2)cc1` (centres undefined), for which, in experiment [2], the % of control is 85%.
Take `Cc1cc([C@@H](C)Nc2ccccc2C(=O)O)c2nc(N3CCOCC3)cc(=O)n2c1` [AZD-6482]: the % of control in experiment [3] worked out at 92%.
The term IC50 denotes the midpoint of a concentration-inhibition curve. In experiment [4], `CNCCN1CCC(c2cc(CN(C)C(=O)c3cccc(Oc4ccccc4)c3)ccn2)CC1` registered an IC50 of over 10 µM.
For the compound `Nc1cnc(N2CCc3cc(S(=O)(=O)Nc4c(F)cc(Cl)cc4F)cc(N4CCCC4=O)c32)nc1` [TP-020n], the % of control is 93% in experiment [5] and 88% in experiment [7]. In addition, the % of inhibition in experiment [6] was -15.7%; in [8] it was -4.55%.
`CCn1c(-c2nc3cc(C(=O)N4CCCC(N)C4)ccc3n2C)cc2ccccc21` (centres undefined) yielded a pXC50 in [9] of 4.6 M.
With `CC[C@@H]1[C@H](F)C(=O)N[C@@H]1COc1nccc2cc(C(N)=O)c(OC)cc12` [ZIMLOVISERTIB], the % of inhibition in [10] (at 0.01 µM) is 3.8%; in experiment [10] (at 0.04 µM) it was -0.9%; in [10] (at 0.2 µM) it was 5%; in experiment [10] (at 1 µM), 8.5%; in [10] (at 5 µM), 17%.
Regarding `CC(=O)Nc1cccc(-n2c(=O)n(C3CC3)c(=O)c3c(Nc4ccc(I)cc4F)n(C)c(=O)c(C)c32)c1`, the % of control in experiment [11] came to 114%.
`CN(C)CCCOc1ccc(-c2cc(NCCCn3cccn3)nc(S(C)(=O)=O)n2)cc1` had a dTM in experiment [12] of under 2 K.
On to `Cc1cc(CN)cc(C)c1-c1ncn(C)c1-c1cncn1C`, for which the dTM in experiment [13] is -1.91 K.
With `C=CC(=O)Nc1cc(-n2c(=O)ccc3cnc4ccc(-c5ccc(NS(C)(=O)=O)cc5)cc4c32)ccc1C`, in experiment [14], the % of control stood at 78%.
For `O[C@H]1CC[C@H](Nc2ncc3nc(Nc4c(F)cc(F)cc4F)n([C@H]4CCOC4)c3n2)CC1`, in [15], the % of control came to 100%.
